Here are results for 1 sequence from patent US20250213649A1, “PEPTIDE HAVING ANTI-INFLAMMATORY AND ANTI-FIBROTIC ACTIVITIES AND USE THEREOF” (CAREGEN CO., LTD., priority 2022, published 2025).

Experiment [1] relates to MRC-5 cells. Description: Inhibition of fibrosis gene expression induced by LPS, RT-PCR, MRC-5 cells. Type of experiment: cell-based. The conditions noted are these: 5 μg/ml LPS, peptide 10, 50, 100, 500 μM, 3 hours, RT-PCR (FIG. 6). The procedure: MRC-5 cells (lung fibroblast cells) were seeded at 2×10^5 cells/well in a 12-well plate and used in the experiment. After culturing for 1 day with a culture medium containing 10% FBS, the culture medium was replaced with a culture medium without containing FBS to induce starvation for 4 hours. Cells of a normal group without being treated with any substances, a group treated with 5 μg/ml of LPS (Sigma Aldrich) (negative control group), groups treated with 5 μg/ml of LPS and the peptide of Production Example 1 (10, 50, 100, 500 μM), and a group treated with 5 μg/ml of LPS and 10 μM of Dexamethasone (DEX) (positive control group) were treated with the above-described active substances and drugs respectively, and then RNA was extracted after 3 hours to carry out RT-PCR. RNA was extracted from MRC-5 cells using an easy-BLUE™ Total RNA extraction kit (Qiagen, Germany). The extracted RNA was converted into cDNA using RT-PCR premix (iNtRON Biotechnology, Seongnam, Korea). After preparing a reaction mixture with PCR premix (iNtRON Biotechnology, Seongnam, Korea) and primers for each gene, PCR was carried out using a PCR machine (Eppendorf, Germany). Next, the mRNA expression pattern was determined by agarose gel electrophoresis.

The test system of experiment [2] is A549 cells. Nature of the experiment: Inhibition of LPS-induced inflammatory cytokine gene expression, RT-PCR, A549 cells. Type of experiment: cell-based, human. Particulars: 5 μg/ml LPS, peptide 10, 50, 100, 500 μM, 3 hours, RT-PCR (FIG. 2). The procedure: A549 cells (human alveolar basal epithelial cells) were seeded at 3×10^5 cells/well in a 6-well plate and used in the experiment. After culturing for 1 day with a culture medium containing 10% FBS, the culture medium was replaced with a culture medium without containing FBS to induce starvation for 4 hours. A normal group without being treated with any substances, a group treated with 5 μg/ml of LPS (Sigma Aldrich) (negative control group), groups treated with 5 μg/ml of LPS and the peptide of Production Example 1 (10, 50, 100, 500 μM), and a group treated with 5 μg/ml of LPS and 10 μM of Dexamethasone (DEX) (positive control group) were treated with active substances and drugs respectively, and then RNA was extracted after 3 hours to carry out RT-PCR. RNA was extracted from the A549 cells in the above-described treatment group using an easy-BLUE™ Total RNA extraction kit (Qiagen, Germany). The extracted RNA was converted into cDNA with RT-PCR premix (iNtRON Biotechnology, Seongnam, Korea). After preparing a reaction mixture with PCR premix (iNtRON Biotechnology, Seongnam, Korea) and primers for each gene, PCR was carried out using a PCR machine (Eppendorf, Germany). Next, the mRNA expression pattern was determined by agarose gel electrophoresis. The base sequences of the primers used in the experiment are listed in [Table 2] below.

The test system of experiment [3] is MRC-5 cells. Description: Inhibition of LPS-induced inflammatory cytokine gene expression, RT-PCR, MRC-5 cells. The experiment is classed as cell-based. Particulars: 5 μg/ml LPS, peptide 10, 50, 100, 500 μM, 24 hours, RT-PCR (FIG. 1). How it is done:
MRC-5 cells (lung fibroblast cells) were seeded at 3×10^5 cells/well in a 12-well plate and used in the experiment. After culturing for 1 day with a culture medium containing 10% FBS, the culture medium was replaced with a culture medium without containing FBS to induce starvation for 4 hours. A normal group without being treated with any substances, a group treated with 5 μg/ml of LPS (Sigma Aldrich) (negative control group), groups treated with 5 μg/ml of LPS and the peptide of Production Example 1 (10, 50, 100, 500 μM), and a group treated with 5 μg/ml of LPS and 10 μM of Dexamethasone (DEX) (positive control group) were treated with active substances and drugs respectively, and then RNA was extracted after 24 hours to carry out RT-PCR. RNA was extracted from MRC-5 cells using an easy-BLUE™ Total RNA extraction kit (Qiagen, Germany). The extracted RNA was converted into cDNA with RT-PCR premix (iNtRON Biotechnology, Seongnam, Korea). After preparing a reaction mixture with PCR premix (iNtRON Biotechnology, Seongnam, Korea) and primers for each gene, PCR was carried out using a PCR machine (Eppendorf, Germany). Next, the mRNA expression pattern was determined by agarose gel electrophoresis. The base sequences of the primers used in the experiment are listed in [Table 2] below.

For experiment [4], the system named is A549 cells. Nature of the experiment: Western blotting of LPS-induced inflammatory cytokine/signaling proteins, A549 cells. Type of experiment: cell-based, human. The conditions noted are these: LPS 5 μg/ml, peptide 10, 50, 100, 500 μM, 24 hours, Western blot (FIG. 4a, 4b). The procedure:
A549 cells (human alveolar basal epithelial cells) were seeded at 3×10^5 cells/well in a 6-well plate and used in the experiment. After culturing for 1 day with a culture medium containing 10% FBS, the culture medium was replaced with a culture medium without containing FBS to induce starvation for 4 hours. Cells of a normal group without being treated with any substances, a group treated with LPS (5 μg/ml) (Sigma Aldrich) (negative control group), groups treated with LPS (5 μg/ml) and the peptide of Production Example 1 (10, 50, 100, 500 μM), and a group treated with LPS (5 μg/ml) and 10 μM of Dexamethasone (DEX) (positive control group) were treated with active substances and drugs respectively and then cultured for 24 hours. The cultured cells of each treatment group and control group were lysed by adding a lysis buffer, and then centrifugation was carried out at 4° C. at 12,000 rpm for 30 minutes to obtain proteins, which were subsequently quantified using a BCA Protein Assay kit (Sigma). The proteins were subjected to SDS-PAGE (sodium dodecyl sulfate-polyacrylamide gel electrophoresis) and then subjected to electrotransfer to a membrane. The membrane to which the proteins were attached was treated with 5% skim milk for blocking and then subjected to a reaction with a primary antibody overnight at 4° C. After washing with PBS-T, the membrane was subjected to a reaction with a secondary antibody at room temperature for 1 hour, washed again with PBS-T, and then visualized by a Western detection reagent (Elpis Biotech, Daejeon, Korea) using Gel Doc (Bio-Rad, Hercules, CA, USA). The antibodies used in the experiment are as follows. An Anti-IL-1β antibody: (Cell signaling technology (CST), USA), an anti-IL-6 antibody: (Santa Cruz Biotechnology, USA), an anti-COX2 antibody: (Santa Cruz Biotechnology, USA), an anti-Phospho-PI3K antibody: (Cell signaling technology (CST), USA), an anti-Phospho-AKT antibody: (Cell signaling technology (CST), USA), an anti-Phospho-ERK antibody: (Cell signaling technology (CST), USA), and an anti-β-Actin antibody: (Santa Cruz Biotechnology, USA).
(A western blot detects proteins with antibodies after separation by electrophoresis.)

For the sequence “KYLLVHRPYYRR [peptide of Production Example 1]”, in experiment [1], the “expression level of Collagen 1A1 gene” value is “decreases again the expression levels of the α-SMA and Collagen 1A1 genes in a concentration-dependent manner”; the “expression level of α-SMA gene” value is “decreases again the expression levels of the α-SMA and Collagen 1A1 genes in a concentration-dependent manner”. In experiment [2], the “gene expression of COX-2” value is given as “decreases in a concentration-dependent manner”, the “gene expression of IL-1β” value was “decreases in a concentration-dependent manner”, the “gene expression of IL-6” value is listed as “decreases in a concentration-dependent manner” and the “gene expression of IL-8” value is “decreases in a concentration-dependent manner”. Also, the “gene expression of TNF-α” value in experiment [2] is “decreases in a concentration-dependent manner”. In experiment [3], the “gene expression of IL-1β” value is given as “decreases in a concentration-dependent manner”, the “gene expression of IL-6” value is given as “decreases in a concentration-dependent manner”, the “gene expression of IL-8” value is given as “decreases in a concentration-dependent manner” and the “gene expression of TNF-α” value was “decreases in a concentration-dependent manner”. In experiment [4], the “expression of COX2 (protein)” value was “decreased the expression levels of proteins in a concentration-dependent manner”, the “expression of IL-1β (protein)” value was “decreased the expression levels of proteins in a concentration-dependent manner”, the “expression of IL-6 (protein)” value is on record as “decreased the expression levels of proteins in a concentration-dependent manner” and the “expression of Phospho-AKT” value is given as “decreased the expression levels of proteins in a concentration-dependent manner”. Further, in experiment [4], the “expression of Phospho-ERK” value is “decreased the expression levels of proteins in a concentration-dependent manner” and the “expression of Phospho-PI3K” value was “decreased the expression levels of proteins in a concentration-dependent manner”.
